# Data published in patent US20180116983A1, “COMPOUNDS FOR TREATING DISORDERS ASSOCIATED WITH BK CHANNEL MODULATION” (Canbex Therapeutics Limited, priority 2015, published 2018).
# Entries after “also recorded” stand apart in the source; their conditions may differ.
# Legend:
# [1] = molecular target: BK channel (Homo sapiens, UniProt Q12791); experiment: Whole-cell patch clamp, BK current and membrane potential in EA.hy926 cells; format: cell-based; set-up: The human umbilical vein derived endothelial cell line, EA.hy926; endogenous in cells; host or cells: EA.hy926 human endothelial cell line
# Experimental: The human umbilical vein derived endothelial cell line, EA.hy926 (Edgell et al., Proc Natl Acad Sci USA. 1983 June; 80(12): 3734-7) at passage >45 was grown in DMEM containing 10% FCS and 1% HAT (5 mM hypoxanthine, 20 μM aminopterin, 0.8 mM thymidine) and cells were maintained in an incubator at 37° C. in 5% CO2 atmosphere. Cells were plated on either 10 mm (for patch-clamp recordings) or 30 mm glass cover slips (for Ca^2+ measurements).
# Membrane potential of EA.hy926 cells was recorded using the perforated patch clamp technique as described previously (Bondarenko et al, 2010, Br. J. Pharmacol. 161, 308-320). For membrane potential recordings from EA.hy926 cells the standard bath solution contained (in mM): 140 NaCl, 5 KCl, 1.2 MgCl2, 10 HEPES, 10 glucose, 2.4 CaCl2, patch pipettes were filled with a solution containing (in mmol/L): 140 KCl; 0.2 EGTA; 10 HEPES (pH adjusted to 7.2 using KOH). The resistance of the pipettes was 3-5 MΩ for whole cell and 6-8 MΩ for single channel recordings.
# [2] = test system: C57BL/6.Fmr1 knockout mice; experiment: Contextual fear conditioning in Fmr1 knockout mice; format: in vivo, mouse; conditions: Fmr1 knockout mice, 2 mg/kg i.v.
# Experimental: Animals: C57BL/6.J. Fmr1-K02 mice, which have a deletion of the promoter and exonl of the Fmr1 gene (Mientjes et al., 2006) and C57BL/6J wild type (WT) were originated from the Jackson laboratory (Ann Harbor, USA). Mice were housed in groups (4-6 per cage) and all animals were provided with ad libitum food and water unless otherwise stated. Mice were maintained on a 12 h light/12 h dark cycle (lights off 19:00 to 7:00) in a temperature-controlled environment (21±1° C.). Testing was conducted in the light phase. Mice were housed in commercial cages and experiments were performed in line with the United Kingdom Animals (Scientific procedures) Act 1986. All experiments were conducted with experimentors blind to genotype and drug treatment. Each experimental group contained 10 animals.
# Drug Treatment: VSN16R was dissolved in saline for injection intravenously via a tail vein using 2 mg/kg a 30 g needle in a volume of 0.1 ml. Animals were inspected for differences in coat appearance, to detect whether any piloerection was present. The eye condition (runny eyes or porphyria, ptosis), gait appearance, tremor, tail tone, reactivity to handling was assessed to detect adverse behavioural effect.
# Contextual fear conditioning: Animals are trained to expect an electroshock treatment within a defined environment, such that on subsequent presentation of the environment, freezing behaviours are induced. […]
# [3] = molecular target: T1, KNCMA1 (Sus scrofa, UniProt O18866); experiment: Whole-cell current in primary pig aortic endothelial cells; format: cell-based; conditions: no BK beta chains
# T1 construct: endogenous in cells; host or cells: primary pig aortic endothelial cells
# Source text: Pig aortic endothelial cells only express KNCMAI and not KNCMB1-4 (Papassotiriou et al). Thus, the absence of stimulation indicates a lack of effect on KNCMA1.
# [4] = molecular target: T1, KNCMA1; experiment: Inside-out patch clamp of pig aortic endothelial cells; format: cell-based
# [5] = Half-life by route; format: in vivo
# [6] = test system: mesenteric arteries; conditions: cited from earlier work
# [7] = Intraocular pressure (IOP) after topical application; format: in vivo, rats; conditions: for IOP, mean: BL 11.18
# Experimental: The effect of VSN16R on IOP was measured using the techniques described in the literature (Guo L. et aI, Investigative Ophthalmology & Visual Science, January 2005, Vol 46, No. 1 p 175-182; Guo L. et al, Investigative Ophthalmology & Visual Science, February 2006, Vol 47, No. 2 p 626-633; Cordeiro F. et al, PNAS, Aug. 14, 2007; Vol 104; No. 33, p 13444-13449; Cordeiro F. et al, PNAS, Sep. 7, 2004; Vol 101; No. 36, p 13352-13356).
# [8] = test system: rat mesenteric arteries; experiment: Vasodilation in rat mesenteric arteries (wire myograph)
# Experimental: Rats were stunned by a blow to the back of their neck and killed by cervical dislocation in compliance with schedule 1 of the UK Animals (Scientific Procedures) Act 1986.
# Segments (2 mm in length) were mounted in a Mulvany-Halpern type wire myograph (Model 610M; Danish Myo Technology, Aarhus, Denmark) and maintained at 37° C. in gassed (95% O2/5% CO2) Krebs-Henseleit solution of the following composition (mM): NaCl 118, KCl 4.7, MgSO4 1.2, KH2PO4 1.2, NaHCO, 25, CaCl2 2, D-glucose 10 as previously described (Ho and Randall, 2007). Arteries were equilibrated and set to a basal tension of 2-2.5 mN. The integrity of the endothelium was assessed by precontracting the vessel with 10 μM methoxamine (an α1-adrenoceptor agonist), followed by relaxation with 10 μM carbachol (a muscarinic acetylcholine receptor agonist); vessels showing relaxations of greater than 90% were designated as endothelium-intact. When endothelium was not required, it was removed by rubbing the intima with a human hair; carbachol-induced relaxation of less than 10% indicated successful removal. After the test for endothelial integrity, arteries were left for 30 min and then precontracted with 10 μM methoxamine (or 60 mM KCl), this was followed by construction of a cumulative concentration-relaxation curve to VSN16R (10 nM-1 μM). Most experiments were performed in matched vessels; effects of putative modulators or endothelial removal were compared with the control responses obtained in separate vessels of the same rat. Potential modulators were added to the myograph bath 30 min before measurement, and kept present during, construction of the concentration-relaxation curve.
# Chain of BK channel (Q12791 1-1178 isoform Q12791-5): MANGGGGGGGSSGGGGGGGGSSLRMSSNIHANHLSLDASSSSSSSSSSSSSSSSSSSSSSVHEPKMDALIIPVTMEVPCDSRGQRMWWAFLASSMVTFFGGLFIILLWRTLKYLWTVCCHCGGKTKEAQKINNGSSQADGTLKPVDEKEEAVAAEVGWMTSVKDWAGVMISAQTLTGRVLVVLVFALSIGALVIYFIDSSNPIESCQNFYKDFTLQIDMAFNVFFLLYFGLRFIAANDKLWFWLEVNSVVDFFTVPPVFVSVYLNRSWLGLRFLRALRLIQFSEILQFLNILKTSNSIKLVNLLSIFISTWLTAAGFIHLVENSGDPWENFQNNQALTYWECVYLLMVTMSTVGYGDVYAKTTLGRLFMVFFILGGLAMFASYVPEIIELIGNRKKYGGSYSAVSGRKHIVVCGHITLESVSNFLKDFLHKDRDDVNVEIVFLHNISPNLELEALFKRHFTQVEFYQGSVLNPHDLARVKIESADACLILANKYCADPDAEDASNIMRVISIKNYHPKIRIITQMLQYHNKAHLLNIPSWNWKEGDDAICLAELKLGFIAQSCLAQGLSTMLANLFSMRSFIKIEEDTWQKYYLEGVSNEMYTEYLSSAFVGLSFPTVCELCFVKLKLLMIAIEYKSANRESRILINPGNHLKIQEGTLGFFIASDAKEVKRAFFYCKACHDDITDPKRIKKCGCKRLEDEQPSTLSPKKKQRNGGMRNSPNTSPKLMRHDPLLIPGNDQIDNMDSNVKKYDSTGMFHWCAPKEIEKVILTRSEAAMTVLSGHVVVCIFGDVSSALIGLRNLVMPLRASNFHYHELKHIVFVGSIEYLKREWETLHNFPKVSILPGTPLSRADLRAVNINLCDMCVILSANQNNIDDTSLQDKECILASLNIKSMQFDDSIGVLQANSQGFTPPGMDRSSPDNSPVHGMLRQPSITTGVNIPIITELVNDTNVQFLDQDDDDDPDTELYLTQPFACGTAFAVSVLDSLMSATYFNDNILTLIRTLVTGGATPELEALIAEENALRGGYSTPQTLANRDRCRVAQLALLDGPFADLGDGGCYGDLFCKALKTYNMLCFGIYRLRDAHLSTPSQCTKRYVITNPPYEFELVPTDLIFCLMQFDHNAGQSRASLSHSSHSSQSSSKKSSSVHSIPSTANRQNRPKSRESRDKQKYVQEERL
# Chain of BK channel (Q86W47 whole entry partner): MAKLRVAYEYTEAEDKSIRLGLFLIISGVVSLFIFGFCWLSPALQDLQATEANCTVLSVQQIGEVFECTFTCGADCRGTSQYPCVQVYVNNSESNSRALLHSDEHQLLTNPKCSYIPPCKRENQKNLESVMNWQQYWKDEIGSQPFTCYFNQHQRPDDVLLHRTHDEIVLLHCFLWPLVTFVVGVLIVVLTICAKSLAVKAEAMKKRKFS
# T1 sequence (O18866 whole entry): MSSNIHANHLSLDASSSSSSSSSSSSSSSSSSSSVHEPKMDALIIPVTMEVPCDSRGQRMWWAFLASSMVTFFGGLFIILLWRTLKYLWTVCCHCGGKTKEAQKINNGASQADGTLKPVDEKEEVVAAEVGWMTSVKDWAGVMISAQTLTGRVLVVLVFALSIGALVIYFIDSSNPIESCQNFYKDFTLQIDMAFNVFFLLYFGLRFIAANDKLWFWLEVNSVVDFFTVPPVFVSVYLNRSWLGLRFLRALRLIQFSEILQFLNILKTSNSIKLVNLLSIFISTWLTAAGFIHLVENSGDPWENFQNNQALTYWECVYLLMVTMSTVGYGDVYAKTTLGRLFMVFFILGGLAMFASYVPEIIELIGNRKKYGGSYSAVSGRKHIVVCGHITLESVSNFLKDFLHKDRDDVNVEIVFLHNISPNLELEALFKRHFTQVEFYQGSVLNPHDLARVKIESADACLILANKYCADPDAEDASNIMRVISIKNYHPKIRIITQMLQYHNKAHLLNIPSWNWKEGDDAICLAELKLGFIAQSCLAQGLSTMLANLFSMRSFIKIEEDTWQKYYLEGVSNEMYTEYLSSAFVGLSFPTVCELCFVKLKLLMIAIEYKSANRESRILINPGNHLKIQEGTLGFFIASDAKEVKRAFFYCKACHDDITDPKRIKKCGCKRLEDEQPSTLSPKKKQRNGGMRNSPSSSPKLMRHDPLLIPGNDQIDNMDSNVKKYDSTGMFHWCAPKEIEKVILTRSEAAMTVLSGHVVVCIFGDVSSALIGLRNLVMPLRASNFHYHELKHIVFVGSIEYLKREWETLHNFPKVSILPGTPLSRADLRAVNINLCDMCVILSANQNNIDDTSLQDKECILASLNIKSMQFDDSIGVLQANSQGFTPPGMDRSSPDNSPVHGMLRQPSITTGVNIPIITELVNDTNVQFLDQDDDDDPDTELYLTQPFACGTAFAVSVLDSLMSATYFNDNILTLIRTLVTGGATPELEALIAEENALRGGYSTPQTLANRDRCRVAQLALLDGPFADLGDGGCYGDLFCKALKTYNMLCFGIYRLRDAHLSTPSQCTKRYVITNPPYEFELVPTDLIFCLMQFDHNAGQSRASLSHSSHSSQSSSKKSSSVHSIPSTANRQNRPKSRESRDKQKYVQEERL
compound,measurement,setting,value
C[C@H](CO)NC(=O)c1cccc(/C=C\CCCC(=O)N(C)C)c1 [VSN16R],membrane potential,[1]; EA.hy926 cells,induces sustained hyperpolarisation
same,whole-cell BK current,"[1]; human EA.hy926 cells, current blocked by paxilline",induces a BKca specific current; also recorded: induces currents that are sensitive to paxilline
same,fear conditioning (freezing),[2],inhibits the development of fear conditioning; also recorded: significantly (P<0.001) limited the exaggerated behaviour
same,effect on current,[3],only a minor effect on current
same,response in inside-out patch,[4],does not give a response
same,t½,[5]; intravenous route,6 min
same,"half-life, oral route relative to intravenous route",[5]; oral vs intravenous,10 times
same,action on smooth muscle carrying the β1 subunit,[6],does not act on smooth muscle
same,"IOP, mean","[7]; 0.5 h after VSN16R, p<0.05",9.82 mmHg
same,"IOP, mean","[7]; 1 h after VSN16R, not significant",10.79 mmHg
same,effect on intraocular pressure,"[7]; topical to the eye, normal rats",reduces intraocular pressure
same,relaxation of rat mesenteric arteries in the presence of charybdotoxin,[8]; 50 nM charybdotoxin,inhibited by antagonists of BKCa channels
same,relaxation of rat mesenteric arteries in the presence of iberotoxin,[8]; 50 nM iberotoxin,blocked by iberotoxin; also recorded: can be inhibited by the specific BK channel blocker iberiotoxin; also recorded: inhibited by antagonists of BKCa channels
same,activation of calcium activated potassium channels in arterial vasodilation assay,"[8]; FIG. 9, reduction of endothelial tone",activates calcium activated potassium channels
same,relaxation of rat mesenteric arteries in the presence of apamin alone,[8]; apamin alone,non-significant blockade
same,relaxation of rat mesenteric arteries in the presence of apamin and charybdotoxin,[8]; combination of apamin and charybdotoxin,blocked
same,relaxation of rat mesenteric arteries in the presence of 60 mM KCl,[8]; extracellular 60 mM KCl,inhibiting VSN16R activity; also recorded: produced no relaxation
same,relaxation of rat mesenteric arteries,"[8]; pre-contracted with methoxamine, endothelium intact vs denuded",relaxed; also recorded: can induce vasorelaxation in an endothelium-dependent (P<0.001) manner
